Results reported in patent US7563798B2, “Substituted pyrazolo[1,5-a]pyrimidines as protein kinase inhibitors” (Schering Corporation, priority 2002, dated 2009).

molecular target: T1, Cyclin E/CDK2 (Homo sapiens, UniProt P24941); assay: Cyclin E/CDK2 in vitro kinase assay (33P-ATP, SPA beads); format: biochemical
T1 construct: made in house; host or cells: SF9 insect cells (baculovirus co-infection)

Row | Compound | IC50 [µM]
1 | Cc1cc(Nc2cc(N3CC[C@@H](N)C3)nc3c(-c4cnn(C)c4)cnn23)sn1 | 49
2 | Cc1cc(Nc2cc(C3CCCNC3)nc3c(-c4cnn(C)c4)cnn23)sn1 (centres unmarked) | 46
3 | Cc1cc(Nc2cc(C3CCCNC3)nc3c(-c4cncs4)cnn23)sn1 (centres unmarked) | 3.3
4 | Cc1cc(Nc2cc(C3CCCNC3)nc3c(-c4coc(C=NO)c4)cnn23)sn1 (centres unmarked) | 0.05
5 | Cc1cc(Nc2cc(C3CNCCS3)nc3c(-c4cnn(C)c4)cnn23)sn1 (centres unmarked) | 40
6 | Cc1cc(Nc2cc(C3CCCNC3)nc3c(Br)cnn23)sn1 (centres unmarked) | 0.076
7 | Cc1cc(Nc2cc(C3CCCNC3)nc3c(-c4coc(C#N)c4)cnn23)sn1 (centres unmarked) | 3.6
8 | Cc1cc(Nc2cc(N3CC(N)C3)nc3c(-c4cnn(C)c4)cnn23)sn1 | 6.7
